Test results taken from ChEMBL document CHEMBL1201862, “PubChem BioAssay data set” (2004).
The source made the active and inactive calls.

Legend:
[1] = target: T1, RNA-binding protein pos-1 (Caenorhabditis elegans, UniProt G5EF15); experiment: inhibitors of POS-1/mex-3 RNA binding, dose response, biochemical, fluorescence polarization (AID 1964);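 also: purified POS-1 fused to maltose binding protein made in E. coli; potency of compounds blocking POS-1 binding to fluorescent RNA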
T1 sequence (G5EF15 whole entry): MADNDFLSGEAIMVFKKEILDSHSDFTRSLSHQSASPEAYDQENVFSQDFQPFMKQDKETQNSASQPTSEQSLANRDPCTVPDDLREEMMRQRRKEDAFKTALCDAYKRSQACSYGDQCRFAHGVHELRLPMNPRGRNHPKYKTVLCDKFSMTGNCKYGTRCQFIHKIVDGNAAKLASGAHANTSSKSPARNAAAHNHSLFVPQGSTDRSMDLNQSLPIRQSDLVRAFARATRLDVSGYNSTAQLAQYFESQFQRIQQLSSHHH

[2] = target: T2, Zinc finger protein mex-5 (Caenorhabditis elegans, UniProt Q9XUB2); experiment: MEX-5/TCR-2 RNA interaction inhibitors, dose response, biochemical, C. elegans, fluorescence polarization (AID 1960)
T2 sequence (Q9XUB2 whole entry): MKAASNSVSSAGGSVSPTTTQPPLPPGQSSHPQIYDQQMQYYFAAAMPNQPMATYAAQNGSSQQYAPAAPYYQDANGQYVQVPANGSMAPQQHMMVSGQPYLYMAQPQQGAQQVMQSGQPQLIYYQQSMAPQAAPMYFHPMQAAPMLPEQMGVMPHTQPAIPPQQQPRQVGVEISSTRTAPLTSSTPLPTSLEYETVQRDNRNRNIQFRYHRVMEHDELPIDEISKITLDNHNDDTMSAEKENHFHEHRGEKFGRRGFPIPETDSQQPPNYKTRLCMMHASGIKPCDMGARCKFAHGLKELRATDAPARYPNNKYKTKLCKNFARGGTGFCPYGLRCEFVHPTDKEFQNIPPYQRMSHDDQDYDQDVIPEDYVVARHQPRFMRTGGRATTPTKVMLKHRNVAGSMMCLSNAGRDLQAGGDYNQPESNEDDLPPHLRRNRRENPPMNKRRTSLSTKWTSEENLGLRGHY

[3] = target: T3, Probable nicotinate-nucleotide adenylyltransferase (Staphylococcus aureus (strain N315), UniProt P65502); format: functional, Staphylococcus aureus subsp. aureus N315;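 as to IC50 Mean: confirmatory dose-response retesting of NadD inhibitor hits first found in an ultra-high-throughput screen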
[4] = target: T3, Probable nicotinate-nucleotide adenylyltransferase; format: functional, Staphylococcus aureus subsp. aureus N315; conditions: read-out: IC50_Mean
[5] = target: 26S proteasome non-ATPase regulatory subunit 14 (Homo sapiens, UniProt O00487); experiment: inhibition of proteasome subunit RPN11 – biochemical, fluorescence polarization, uHTS hits, confirmation (AID 602368); format: functional
[6] = target: 72 kDa type IV collagenase (Homo sapiens, UniProt P08253); experiment: Dose Response validation of uHTS RPN11 inhibitor hits using a MMP-2 Fluorescence assay.; format: functional
Prothrombin = Prothrombin (Bos taurus, UniProt P00735); experiment: thrombin inhibition, dose response, biochemical, fluorescence polarization, uHTS hits (AID 602369); format: functional
Protein skinhead-1 = target: T4, Protein skinhead-1 (Caenorhabditis elegans, UniProt P34707); format: functional
T4 sequence (P34707 whole entry): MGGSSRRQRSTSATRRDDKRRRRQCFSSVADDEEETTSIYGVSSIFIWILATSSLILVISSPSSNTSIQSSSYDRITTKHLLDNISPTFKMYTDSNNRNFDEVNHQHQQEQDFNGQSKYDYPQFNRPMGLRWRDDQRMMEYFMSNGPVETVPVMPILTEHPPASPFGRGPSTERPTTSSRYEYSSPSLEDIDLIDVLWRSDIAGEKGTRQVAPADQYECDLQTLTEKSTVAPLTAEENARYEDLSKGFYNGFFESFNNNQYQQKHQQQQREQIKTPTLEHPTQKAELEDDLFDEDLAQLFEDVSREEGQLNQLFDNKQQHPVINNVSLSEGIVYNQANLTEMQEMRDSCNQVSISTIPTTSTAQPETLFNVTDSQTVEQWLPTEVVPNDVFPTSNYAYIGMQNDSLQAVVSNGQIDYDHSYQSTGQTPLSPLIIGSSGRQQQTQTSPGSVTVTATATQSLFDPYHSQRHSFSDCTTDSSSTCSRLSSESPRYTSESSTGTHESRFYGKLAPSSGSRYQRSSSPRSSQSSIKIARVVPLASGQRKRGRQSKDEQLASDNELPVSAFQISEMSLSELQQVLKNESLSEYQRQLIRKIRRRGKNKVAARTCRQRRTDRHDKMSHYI

Kallikrein-7 = Kallikrein-7 (Homo sapiens, UniProt P49862); experiment: Fluorescence Intensity-based biochemical primary high throughput dose response assay to identify activators of kallikrein-7 (K7) zymogen.
[7] = inhibitors of intracellular T. cruzi replication, confirmation, NIH3T3 host cells, beta-gal luminescence (AID 2044); format: functional, cell-based;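 also: intracellular parasites grown in NIH/3T3 mouse fibroblasts as host cells; luminescent beta-galactosidase reporter signal from transgenic T. cruzi replicating inside host cells; inhibitors lower the luminescence signal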
[8] = cytotoxicity toward NIH3T3 fibroblasts, dose response, counter-screen, cell-based, ATP luminescence, mouse fibroblasts (AID 2010); format: functional;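 also: cells exposed to compound for about 90 hours before reading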
[9] = cytotoxicity in HEK-293T cells, dose response, cytotoxicity control for TCR NF-kB inhibitor project, luminescence, T-cell screen hits (AID 489026); format: functional, cell-based;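 also: cells exposed to compound about 14 hours before the viability readout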
INS1 = experiment: beta cell apoptosis inhibitors, cytokine rescue, dose response, luminescence, retest (AID 449756); format: functional, cell-based; conditions: Rattus norvegicus;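 also: cell death triggered by IL-1 beta plus TNF-alpha plus IFN-gamma mixture; protective hits raise ATP signal compared with cytokine alone wells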
[10] = Shn3 3'UTR reporter inhibitors, dose response, cell-based, Clone20 osteoblasts, firefly luciferase, cherry-picked (AID 624132); format: functional;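 also: firefly luciferase luminescence from reporter carrying the Shn3 3'UTR in osteoblasts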
[11] = HepG2 cell cytotoxicity, dose response, cytotoxicity control for Shn3 inhibitor project, CellTiter-Glo, cherry-picked (AID 624134); format: functional, cell-based
[12] = control 3'UTR Renilla luciferase suppression, dose response, counter-screen for Shn3 inhibitor project, cell-based, Clone20-Shn3RL, cherry-picked (AID 624133); format: functional
[13] = target: T5, COUP transcription factor 2 (Homo sapiens, UniProt P24468); experiment: Luminescence-based cell-based high throughput dose response assay to identify inhibitors of COUP-TFII (NR2F2).; format: functional;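 also: HEK293 cells transiently cotransfected with COUP-TFII expression vector and reporter; luciferase reporter luminescence driven by COUP-TFII from the pX2-168 reporter plasmid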
T5 sequence (P24468 whole entry): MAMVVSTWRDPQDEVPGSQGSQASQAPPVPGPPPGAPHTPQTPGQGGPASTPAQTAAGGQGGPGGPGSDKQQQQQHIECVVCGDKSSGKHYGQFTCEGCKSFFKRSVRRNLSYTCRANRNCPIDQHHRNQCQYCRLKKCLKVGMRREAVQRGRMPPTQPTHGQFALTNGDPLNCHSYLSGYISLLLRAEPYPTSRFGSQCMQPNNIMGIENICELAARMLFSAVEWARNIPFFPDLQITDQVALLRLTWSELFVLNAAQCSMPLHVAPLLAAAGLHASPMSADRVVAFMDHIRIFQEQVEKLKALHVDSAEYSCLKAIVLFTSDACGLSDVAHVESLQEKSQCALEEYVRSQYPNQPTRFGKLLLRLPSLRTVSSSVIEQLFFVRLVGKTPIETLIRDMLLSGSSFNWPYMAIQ

[14] = miR-122 activators in hepatoma reporter cells, dose response, cell-based, Huh7 psiCHECK-miR122, Renilla luciferase, cherry-picked (AID 651956); format: functional;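 also: huh7 hepatoma cells stably carrying a psiCHECK-2 miR-122 sensor plasmid; renilla luciferase signal reporting endogenous miR-122 activity after 48 h compound exposure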
[15] = HEK293T cytotoxicity, dose response, cytotoxicity control for miR-122 modulator project, cell-based, inhibitor set, cherry-pick, set 2 (AID 720697); format: functional

T3 sequence (P65502 whole entry): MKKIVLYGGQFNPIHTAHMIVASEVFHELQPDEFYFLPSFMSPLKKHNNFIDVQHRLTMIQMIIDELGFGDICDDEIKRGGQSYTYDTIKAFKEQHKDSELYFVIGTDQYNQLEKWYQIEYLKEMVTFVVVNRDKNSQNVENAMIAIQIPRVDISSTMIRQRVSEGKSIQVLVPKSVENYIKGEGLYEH
Sequence of 26S proteasome non-ATPase regulatory subunit 14 (O00487 whole entry): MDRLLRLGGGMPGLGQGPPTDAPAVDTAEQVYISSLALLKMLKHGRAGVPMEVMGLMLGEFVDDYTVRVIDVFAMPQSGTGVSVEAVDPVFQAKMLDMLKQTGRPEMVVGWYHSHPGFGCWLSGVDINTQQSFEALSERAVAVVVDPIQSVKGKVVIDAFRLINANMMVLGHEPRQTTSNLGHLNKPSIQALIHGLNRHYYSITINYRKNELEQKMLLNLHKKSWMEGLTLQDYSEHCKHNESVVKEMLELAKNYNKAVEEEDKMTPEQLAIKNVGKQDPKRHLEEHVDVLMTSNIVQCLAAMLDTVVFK
Sequence of Kallikrein-7 (P49862 whole entry): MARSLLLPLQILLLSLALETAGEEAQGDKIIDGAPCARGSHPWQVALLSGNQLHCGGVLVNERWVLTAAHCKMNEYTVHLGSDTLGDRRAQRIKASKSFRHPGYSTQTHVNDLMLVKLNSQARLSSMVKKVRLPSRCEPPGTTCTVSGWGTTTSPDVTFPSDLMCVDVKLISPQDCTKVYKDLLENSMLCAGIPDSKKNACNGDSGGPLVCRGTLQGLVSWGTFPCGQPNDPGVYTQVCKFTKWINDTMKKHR
Sequence of 72 kDa type IV collagenase (P08253 whole entry): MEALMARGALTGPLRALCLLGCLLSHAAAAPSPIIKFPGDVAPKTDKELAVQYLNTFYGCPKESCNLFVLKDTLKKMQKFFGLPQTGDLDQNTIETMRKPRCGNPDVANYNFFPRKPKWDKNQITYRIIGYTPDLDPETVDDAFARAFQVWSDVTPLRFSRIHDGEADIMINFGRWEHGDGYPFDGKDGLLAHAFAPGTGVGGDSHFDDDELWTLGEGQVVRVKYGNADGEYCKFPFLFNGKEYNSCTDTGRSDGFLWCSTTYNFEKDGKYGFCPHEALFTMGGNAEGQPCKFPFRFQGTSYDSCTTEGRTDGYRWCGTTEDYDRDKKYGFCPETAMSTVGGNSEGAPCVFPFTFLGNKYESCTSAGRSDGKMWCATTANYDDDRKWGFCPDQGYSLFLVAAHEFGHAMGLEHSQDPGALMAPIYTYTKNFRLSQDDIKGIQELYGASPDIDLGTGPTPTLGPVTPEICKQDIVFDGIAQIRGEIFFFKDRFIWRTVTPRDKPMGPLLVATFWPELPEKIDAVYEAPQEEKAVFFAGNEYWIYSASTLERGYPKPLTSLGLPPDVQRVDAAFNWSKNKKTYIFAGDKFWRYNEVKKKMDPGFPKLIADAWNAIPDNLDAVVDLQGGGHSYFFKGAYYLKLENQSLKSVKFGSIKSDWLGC

CCCCC1=CC2=CC(=O)C(C)(OC(=O)CC)C(=O)C2=CO1 (stereo not drawn)
EC50 [1]: 27.8 µM (active) | EC50 [2]: 21.6 µM (active) | IC50 [3]: 9.32 µM (active) | IC50 [4]: 24 µM (active)

Cn1c2ccccc2c2cc(C(=O)OCC(=O)N3CC(=O)Nc4ccccc43)sc21
IC50 [5]: 13.9 µM (active) | IC50 [6]: > 100 µM (inactive) | IC50 (Prothrombin): 32.4 µM (active) | IC50 (Protein skinhead-1): > 100 µM (inactive)

N#C/C(=C/c1ccc(-c2ccc(S(N)(=O)=O)cc2)o1)C(=O)Nc1ccccc1
EC50 (Kallikrein-7): 9.54 µM (active)

COc1ccc(-c2csc(NC(=O)C3CCN(c4ncnc5sc(C)c(C)c45)CC3)n2)cc1OC
EC50 [7]: 1.37 µM (active) | EC50 [8]: > 60 µM (not active) | IC50 [9]: > 80 µM (inactive) | AC50 (INS1): 3.6 µM (active) | AC50 [10]: 1.42 µM (active) | AC50 [11]: 1.86 µM (active) | AC50 [12]: 0.857 µM (active) | IC50 [13]: 3.82 µM (active)

CCOc1ccc2nc(NS(=O)(=O)c3cccs3)sc2c1
AC50 [14]: 6.98 µM (active) | AC50 [15]: 1.99 µM (active)

COC(=O)CCCC1=CC2=CC(=O)C(C)(OC(=O)CCc3ccccc3)C(=O)C2=CO1 (stereo not drawn)
EC50 [1]: 30.9 µM (active) | EC50 [2]: 26.7 µM (active) | IC50 [3]: 5.76 µM (active) | IC50 [4]: 14.2 µM (active)
